Test results reported in US20170119742A1, “MEDICAMENT FOR PREVENTING AND/OR TREATING STRESS DISEASES” (ONO PHARMACEUTICAL CO., LTD., priority 2014, published 2017).

Experiments:
brain TSPO [1] = assay: Ex vivo brain TSPO occupancy in monkeys, [3H] PBR28; conditions: rhesus monkey, once on day 4, 2 h after final dose
Protocol: The vehicle (0.5 w/v % methylcellulose 400 cP solution) or the compound of the present invention (0.4 or 1 mg/kg) was orally administered twice daily for 3 days, once on day 4 to male rhesus monkeys (Shin Nippon Biomedical Laboratories, Ltd., at the time of use: 4 to 6 kg). After 2 hours of the final administration, in the same manner as Biological example 1, brain TSPO occupancy of the compound of the present invention relative to the specific binding of the vehicle control group was measured by measuring the specific binding amount of [3H] PBR28 on brain (anterior cingulate cortex, caudate nucleus, amygdala, hippocampus and occipital lobe) homogenates (n=3 in vehicle control group, n=5 in each the compound of the present invention treated group). As a result, the average TSPO occupancy of brain 5 sites was 37.9 and 56.6% in 0.4 and 1 mg/kg group of the compound of the present invention. The average plasma concentration of the compound of the present invention was 23.9 and 154 ng/mL in 0.4 and 1 mg/kg group.

brain TSPO [2] = target: T1, brain TSPO (Rattus norvegicus, UniProt P16257); assay: Ex vivo brain TSPO occupancy in rats, [3H] PK11195 radiotracer (Biological example 1); conditions: for receptor occupancy at 0.1 mg/kg / receptor occupancy at 0.3 mg/kg / receptor occupancy at 1 mg/kg / receptor occupancy at 3 mg/kg: rat, po, [3H] PK11195; for receptor occupancy at 0.1 mg/kg: 0.1 mg/kg oral; for receptor occupancy at 0.3 mg/kg: 0.3 mg/kg oral; for receptor occupancy at 1 mg/kg: 1 mg/kg oral; for receptor occupancy at 3 mg/kg: 3 mg/kg oral
T1 construct: measured by using brain (cerebral cortex and hippocampus) homogenates of the vehicle treated group and the compound of the present invention treated group; from tissue; host or cells: Wistar rat brain (cerebral cortex, hippocampus) homogenate
Protocol: Male Sic: Wistar rats (Japan SLC, Inc., at the time of use: 11 weeks old) was exposed to physical and mental stressors (Journal of Pharmacological Science, Vol. 104, p. 263-273, 2007). The vehicle (0.5 w/v % methylcellulose 400 cP solution) or the compound of the present invention (0.1, 0.3, 1 and 3 mg/kg) was orally administered. Two hours after the administration, the stressor load was started by putting the rat in a restraint stress cage (Natsume Seisakusho Co., Ltd.). The antistress effect was evaluated by measuring the stool weight which was excreted during the stressor load of 1 hour (n=12 in each group).
(§1) Next, brain TSPO occupancy of the compound of the present invention was measured by using brain (cerebral cortex and hippocampus) homogenates of the vehicle treated group and the compound of the present invention treated group, using [^3H] PK11195 as a radiotracer. PK11195 was dissolved in dimethyl sulfoxide (DMSO) to prepare a 4 mmol/L solution. After preparing an ethanol solution of 100 nmol/L [^3H] PK11195 (PerkinElmer, Inc.), the solution was diluted 50-fold with 50 mmol/L HEPES buffer (Sigma-Aldrich Co.). In the case of determining the total binding amount of the radiotracer, 50 mmol/L HEPES (99 μL) and DMSO (1 μL) were added to Nunc MiniSorp (trade name, 12×75 mm, Thermo Fisher Scientific Inc.). In the case of determining the nonspecific binding amount of the radiotracer, 4 mmol/L PK11195 (1 μL) was substituted for DMSO (1 μL). The brain homogenate (50 μL) derived from cerebral cortex or the hippocampus was added to the tube. Then [^3H] PK11195 (50 μL) (cerebral cortex: final concentration 0.4532 nmol/L, hippocampus: final concentration 0.4520 nmol/L) was added and stirred, and the mixture was incubated for 90 minutes at 4° C. After completion of the reaction, ice-cold 50 mmol/L HEPES (2 mL) was added to the tube, and then the mixture was suction filtered on a glass fiber filter (GF/B, Brandel Inc.) which pretreated with 0.3 w/v % polyethyleneimine (Sigma-Aldrich Co.), to collect the brain homogenate. After drying the glass fiber filter, the absorbing part of the brain homogenate was transferred to a liquid scintillation vial. ACS-II scintillation cocktail (7 mL) was added to the liquid scintillation vial and stirred, and the radioactivity was measured by liquid scintillation counter (TRI-CARB2900TR, PerkinElmer Life and Analytical Sciences Inc.). Specific binding amount (dpm) of [3H] PK11195 in each brain homogenate was set to a value obtained by subtracting the nonspecific binding amount (dpm) from the total binding amount (dpm). TSPO occupancy (%) in cerebral cortex and hippocampus, of the compound of the present invention treated group, were calculated according to the following equation.
(§2) TSPO Occupancy (%)=(1−X/Y)×100
(§3) X: Specific binding amount (dpm) in each brain homogenate Y: Average value (dpm) of specific binding amount in control group

brain TSPO [3] = target: T1, brain TSPO; assay: Comparison of radiotracer in rat ex vivo brain occupancy (Biological example 5); conditions: po, rat cerebral cortex, 3 h; for receptor occupancy at 0.03 mg/kg: 0.03 mg/kg oral; for receptor occupancy at 0.1 mg/kg: 0.1 mg/kg oral; for receptor occupancy at 0.3 mg/kg: 0.3 mg/kg oral; for receptor occupancy at 1 mg/kg: 1 mg/kg oral; for receptor occupancy at 3 mg/kg: 3 mg/kg oral
Protocol: as §1, §2, §3
The vehicle (0.5 w/v % methylcellulose 400 cP solution) or the compound of the present invention (0.03, 0.1, 0.3, 1 or 3 mg/kg) was orally administered to male Sic: Wistar rats (Japan SLC, Inc., at the time of use: 11 weeks old). After 3 hours of the administration, in the same manner as Biological example 1, brain TSPO occupancy of the compound of the present invention relative to the specific binding of the vehicle control group was measured by measuring the specific binding amount of [^3H] PK11195 or [^3H] PBR28 (Sekisui Medical Co., Ltd.) of brain (cerebral cortex) homogenates (n=8 in each group). As a result, the average TSPO occupancy of 0.03, 0.1, 0.3, 1 and 3 mg/kg group of the compound of the present invention was […] in the cerebral cortex when [^3H] PK11195 was used as a radiotracer. On the other hand, the average TSPO occupancy was 6.5, 11.5, 40.4, 77.7 and 90.2% in the cerebral cortex when [^3H] PBR28 was used as a radiotracer. […] PBR28 or [^3H] PK11195 radiotracer.

receptor occupancy at 0.1 mg/kg (brain TSPO [2]; rat cerebral cortex): 11.8%
receptor occupancy at 0.3 mg/kg (brain TSPO [2]; rat cerebral cortex): 47.7%
receptor occupancy at 1 mg/kg (brain TSPO [2]; rat cerebral cortex): 83.8%
receptor occupancy at 3 mg/kg (brain TSPO [2]; rat cerebral cortex): 94.5%
receptor occupancy at 0.1 mg/kg (brain TSPO [2]; rat hippocampus): 25.7%
receptor occupancy at 0.3 mg/kg (brain TSPO [2]; rat hippocampus): 50.7%
receptor occupancy at 1 mg/kg (brain TSPO [2]; rat hippocampus): 86.3%
receptor occupancy at 3 mg/kg (brain TSPO [2]; rat hippocampus): 95.1%
brain TSPO occupancy required to exert antistress, antidepressant and antianxiety effect (brain TSPO [2]; rats, achieved by 0.3 to 3 mg/kg, from Biological examples 1 to 4): ≥ 50%
receptor occupancy at 0.03 mg/kg (brain TSPO [3]; [3H] PBR28): 6.5%
receptor occupancy at 0.03 mg/kg (brain TSPO [3]; [3H] PK11195): -1.3%
receptor occupancy at 0.1 mg/kg (brain TSPO [3]; [3H] PBR28): 11.5%
receptor occupancy at 0.1 mg/kg (brain TSPO [3]; [3H] PK11195): 14.9%
receptor occupancy at 0.3 mg/kg (brain TSPO [3]; [3H] PBR28): 40.4%
receptor occupancy at 0.3 mg/kg (brain TSPO [3]; [3H] PK11195): 48.1%
receptor occupancy at 1 mg/kg (brain TSPO [3]; [3H] PBR28): 77.7%
receptor occupancy at 1 mg/kg (brain TSPO [3]; [3H] PK11195): 80.9%
receptor occupancy at 3 mg/kg (brain TSPO [3]; [3H] PBR28): 90.2%
receptor occupancy at 3 mg/kg (brain TSPO [3]; [3H] PK11195): 91.3%
SMILES: COc1cc(Cl)ccc1[C@H]1c2[nH]c3cccc(F)c3c2C2(CC2)CN1C(C)=O [the compound of the present invention, (1S)-2-acetyl-1-(4-chloro-2-methoxyphenyl)-5-fluoro-1,2,3,9-tetrahydrospiro[β-carboline-4,1′-cyclopropane]]
average TSPO occupancy of brain 5 sites (brain TSPO [1]; 0.4 mg/kg oral twice daily 3 days): 37.9%
average TSPO occupancy of brain 5 sites (brain TSPO [1]; 1 mg/kg oral twice daily 3 days): 56.6%
